Laboratory results published in publication PMC6774887 (Molecular cancer therapeutics, 2019).

Columns and labels:
AICARFTase (ATIC) [1] = biological target: T1, AICARFTase (ATIC) (Homo sapiens, UniProt P31939); assay: spectrophotometric THF formation; format: biochemical
MTHFD2 = biological target: T2, MTHFD2 (Homo sapiens, UniProt P13995); assay: NAD; format: biochemical
T2 sequence (P13995 36-333): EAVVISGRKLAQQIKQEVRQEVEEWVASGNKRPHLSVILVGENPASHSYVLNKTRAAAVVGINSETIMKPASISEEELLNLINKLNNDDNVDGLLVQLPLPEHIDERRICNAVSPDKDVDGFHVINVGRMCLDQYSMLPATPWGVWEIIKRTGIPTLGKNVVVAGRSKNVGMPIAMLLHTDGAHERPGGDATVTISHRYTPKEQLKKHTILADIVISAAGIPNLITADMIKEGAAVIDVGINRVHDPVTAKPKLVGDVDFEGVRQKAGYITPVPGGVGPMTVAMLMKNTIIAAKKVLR

AICARFTase (ATIC) [2] = biological target: T1, AICARFTase (ATIC); assay: spectrophotometric THF formation from 10-formyl-THF; format: biochemical; details: Ki = IC50/([S]/KM+[…]); KM of […]-formyl-THF […]
SHMT1 [3] = biological target: T3, SHMT1 (Homo sapiens, UniProt P34896); assay: coupled SHMT/MTHFD2 assay, NADH fluorescence; format: biochemical; details: Ki = IC50/([S]/KM+[…]); KM of THF […]; His-MTHFD2 in […] molar excess
T3 sequence (P34896 7-478): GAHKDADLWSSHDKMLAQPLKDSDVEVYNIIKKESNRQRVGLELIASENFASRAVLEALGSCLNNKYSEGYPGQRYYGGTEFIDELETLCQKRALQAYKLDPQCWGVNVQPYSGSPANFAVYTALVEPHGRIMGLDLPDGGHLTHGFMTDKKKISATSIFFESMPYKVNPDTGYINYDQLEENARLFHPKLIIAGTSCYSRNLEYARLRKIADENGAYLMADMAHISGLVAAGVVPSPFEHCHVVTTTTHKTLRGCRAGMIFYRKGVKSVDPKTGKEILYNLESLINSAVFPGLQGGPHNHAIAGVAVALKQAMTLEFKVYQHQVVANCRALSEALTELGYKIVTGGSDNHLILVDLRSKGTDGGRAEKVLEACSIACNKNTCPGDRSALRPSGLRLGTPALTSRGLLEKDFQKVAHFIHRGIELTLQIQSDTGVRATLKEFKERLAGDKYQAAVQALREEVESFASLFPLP

SHMT2 [4] = biological target: T4, SHMT2 (Homo sapiens, UniProt P34897); assay: coupled SHMT/MTHFD2 assay, NADH fluorescence; format: biochemical; details: Ki = IC50/([S]/KM+[…]); KM of THF […]; His-MTHFD2 in […] molar excess
T4 sequence (P34897 42-504): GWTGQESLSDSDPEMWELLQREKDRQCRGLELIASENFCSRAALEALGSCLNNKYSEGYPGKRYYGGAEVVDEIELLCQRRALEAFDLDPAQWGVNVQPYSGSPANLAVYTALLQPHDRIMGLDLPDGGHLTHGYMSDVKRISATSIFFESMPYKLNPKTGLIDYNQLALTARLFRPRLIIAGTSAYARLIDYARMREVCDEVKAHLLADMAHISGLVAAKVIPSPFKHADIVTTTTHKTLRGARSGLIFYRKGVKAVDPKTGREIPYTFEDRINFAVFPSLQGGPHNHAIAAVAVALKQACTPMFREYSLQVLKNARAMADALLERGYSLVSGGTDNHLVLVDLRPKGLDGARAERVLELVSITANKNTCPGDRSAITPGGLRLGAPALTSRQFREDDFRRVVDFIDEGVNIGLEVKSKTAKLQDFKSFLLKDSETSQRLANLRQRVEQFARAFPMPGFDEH

SHMT1 [5] = biological target: T3, SHMT1; assay: coupled SHMT/MTHFD2 assay, NADH fluorescence; format: biochemical; details: His-MTHFD2 in […] molar excess
SHMT2 [6] = biological target: T4, SHMT2; assay: coupled SHMT/MTHFD2 assay, NADH fluorescence; format: biochemical; details: His-MTHFD2 in […] molar excess
[7] = substrate: Nc1nc2c(c(=O)[nH]1)N[C@@H](CN(C=O)c1ccc(C(=O)N[C@@H](CCC(=O)O)C(=O)O)cc1)CN2; assay: spectrophotometric THF formation; format: biochemical, Homo sapiens

T1 sequence (P31939 whole entry): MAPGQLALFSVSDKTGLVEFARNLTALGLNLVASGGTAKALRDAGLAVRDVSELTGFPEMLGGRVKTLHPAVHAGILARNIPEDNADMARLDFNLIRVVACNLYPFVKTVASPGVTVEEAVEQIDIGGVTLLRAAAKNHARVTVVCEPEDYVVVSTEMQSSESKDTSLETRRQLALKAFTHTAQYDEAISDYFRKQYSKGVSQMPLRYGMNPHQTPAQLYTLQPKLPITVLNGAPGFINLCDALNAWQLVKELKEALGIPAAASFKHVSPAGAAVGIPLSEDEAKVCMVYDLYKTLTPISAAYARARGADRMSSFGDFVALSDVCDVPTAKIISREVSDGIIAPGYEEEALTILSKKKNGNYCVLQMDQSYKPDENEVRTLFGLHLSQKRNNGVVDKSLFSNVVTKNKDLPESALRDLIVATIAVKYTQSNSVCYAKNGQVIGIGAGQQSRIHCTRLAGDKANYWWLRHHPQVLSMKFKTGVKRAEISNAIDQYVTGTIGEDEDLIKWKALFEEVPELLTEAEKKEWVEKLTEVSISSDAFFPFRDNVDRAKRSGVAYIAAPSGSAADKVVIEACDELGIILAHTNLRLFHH

For Nc1nc2c(c(=O)[nH]1)N[C@@H](CN(C=O)c1ccc(C(=O)N[C@@H](CCC(=O)O)C(=O)O)cc1)CN2 [10-formyl-THF], the Km (AICARFTase (ATIC) [1]) was 100 µM.

Nc1nc2[nH]c(CCCc3ccc(C(=O)N[C@@H](CCC(=O)O)C(=O)O)s3)cc2c(=O)[nH]1 [AGF94] was tested, and the “NI (no inhibition up to 200 μM inhibitor; Ki column)” value (MTHFD2) was greater than 200 µM and the “NI (no inhibition up to 200 μM inhibitor; Ki column)” value (AICARFTase (ATIC) [2]) was greater than 200 µM.

With Nc1nc(=O)c2c(CCc3ccc(C(=O)N[C@@H](CCC(=O)O)C(=O)O)cc3)c[nH]c2[nH]1 [PMX] the “NI (no inhibition up to 200 μM inhibitor; Ki column)” value (MTHFD2) was greater than 200 µM, the “NI (no inhibition up to 200 μM inhibitor; Ki column)” value (SHMT1 [3]) was greater than 200 µM and the “NI (no inhibition up to 200 μM inhibitor; Ki column)” value (SHMT2 [4]) was greater than 200 µM.

In the case of Nc1nc2c(c(=O)[nH]1)N[C@@H](CNc1ccc(C(=O)N[C@@H](CCC(=O)O)C(=O)O)cc1)CN2 [THF], the Km (SHMT1 [5]) is reported as 62.8 µM and the Km (SHMT2 [6]) is reported as 108 µM.

For AGF320, the “NI (no inhibition up to 200 μM inhibitor; Ki column)” value (MTHFD2) was greater than 200 µM.

B1: GARFTase (Homo sapiens) (protein)
chain: ARVAVLISGTGSNLQALIDSTREPNSSAQIDIVISNKAAVAGLDKAERAGIPTRVINHKLYKNRVEFDSAIDLVLEEFSIDIVCLAGFMRILSGPFVQKWNGKMLNIHPSLLPSFKGSNAHEQALETGVTVTGCTVHFVAEDVDAGQIILQEAVPVKRGDTVATLSERVKLAEHKIFPAALQLVASGTVQLGENGKICWVKEE
B1 showed a Km [7] of 84.8 µM.
